In ChEMBL document CHEMBL1145540, “Zidovudine inhibits thymidine phosphorylation in the isolated perfused rat heart” (Antimicrob Agents Chemother, 2007):

Tested on: Heart
Experiment: Inhibition of [3H]thymidine phosphorylation in isolated perfused Sprague-Dawley rat heart after 30 mins
Type: functional, tissue-based

For `Cc1cn([C@H]2C[C@H](N=[N+]=[N-])[C@@H](CO)O2)c(=O)[nH]c1=O` [ZIDOVUDINE], which IC50 is on record?
Its IC50 is 24.4 µM.
